Data as given in a melting point compilation (Tetko et al.; mined from patent text by program, amines drawn as free bases though some values may be those of a salt).

Structure (SMILES) | melting point [°C]
CC1(S(C)(=O)=O)C(I)=C(S(C)(=O)=O)C=CC1C(=O)O (centres undefined) | 66 to 67
O=CC(CC(=O)c1ccccc1)(c1ccccc1)c1ccccc1 | 125 to 127
CC(=O)C(C(C)=O)C(=O)Nc1ccccc1 | 119 to 121
COC(C)(C)C(Cl)=NO | 95
O=C(CCC12CCC(=O)N1C(=O)CC2)OCc1ccccc1Cl | 126 to 128
Cn1c([N+](=O)[O-])cnc1C1=NOC2CCCCC12 (centres undefined) | 119 to 121
COc1cc2ncc(C#N)c(Nc3ccc(F)c(Cl)c3)c2cc1NC(=O)C=CCN(CC(C)O)CC(C)O (centres undefined) | 122 to 125
Cc1c(Br)cc2c(c1C)OC(=O)C2(C)c1ccc(C(C)C)cc1 (centres undefined) | 116 to 117
CC1(C)CC(=O)Nc2cc(N)ccc21 | 161 to 163
CCOc1cc(O)c2cc(F)c(F)c(F)c2n1 | 171
CCCCCCCCCCCCCCCCCCNC(=O)OCC(CO)NC(=O)OC(C)(C)C (centres undefined) | 73 to 75
Nc1cc(=O)n(CCC2=CCCCC2)c(=O)n1CCC1=CCCCC1 | 172 to 174
COC(=O)c1ccc(C#Cc2ccc(O)c(C34CC5CC(CC(C5)C3)C4)c2)s1 | 207 to 208
COc1ccc2c(c1)CCC1C2CCC2(C)C(NCc3cccs3)CCC12 (centres undefined) | 85.5 to 85.9
COc1cc2c(cc1O)C(Cc1cc(Br)c(OC)cc1[N+](=O)[O-])N(C)CC2 (centres undefined) | 146
Cc1ccc(-c2nc(O)c(C)s2)cc1 | 172 to 174
O=c1[nH]c2cc(F)c(NCC3CCCCO3)cc2o1 (centres undefined) | 185 to 186
COc1cc(OC)c2c(=O)[nH]c(-c3cc(C)c(OCCN4C(=O)NC(c5ccccc5)C4=O)c(C)c3)nc2c1 (centres undefined) | 220 to 221
CC(=O)N[C@H]1CC[C@H](Nc2nccc(-n3nnc4ccccc43)n2)CC1 | 287 to 288
COC(=O)c1cccc2c1CC(C)(C)CC2N(C)S(C)(=O)=O (centres undefined) | 98 to 99
COC(Cc1ccc(OCCc2nc(-c3ccccc3)oc2C)c2ccccc12)C(=O)O (centres undefined) | 128 to 130
COc1nc2c(Cl)cccc2s1 | 55 to 57

Structure (SMILES) | melting point [°C]
Oc1ccc2nc(Br)sc2c1 | 203 to 204
CCOC(=O)N(CC(=O)NCCc1ccc(OC)c(OC)c1)c1cccc(C(N)=O)c1 | 104 to 105
CCS(=O)(=O)c1ccc(C(=O)O)c(Cl)c1CBr | 103
CC=C(C)C1CCC2C3CCC4=CC(=O)CCC4(C)C3CCC12C (centres undefined) | 157 to 165
CN1C(=O)Cn2cc(C(=O)NCc3ccc(Cl)cc3)c(=O)c3cc(I)cc1c32 | 278 to 283
CC(=O)OC1(N=NC2(OC(C)=O)CCCCC2)CCCCC1 | 91 to 94
COc1cccc2c1nc(Cl)n2C | 118 to 119
CC1(C)CCC(C)(C)c2cc(-c3c[nH]c(C=O)c3)ccc21 | 211 to 212
CCOP(=O)(Cc1ccc(NC(=O)/C=C/c2cnoc2-c2ccccc2)cc1)OCC | 173 to 174
CCCC(=O)Nc1n[nH]c2c([N+](=O)[O-])c(Br)c([N+](=O)[O-])cc12 | 260
CCNC(=O)Nc1nc2cc(-c3cccnc3)cc(N3CCC(O)C3)n2n1 (centres undefined) | 296 to 298
CCOC(=O)c1cnc2cc(C(C)(C)C)ccc2c1O | 279 to 281
CS(=O)(=S)OCCC(=O)O (centres undefined) | 44 to 46
CC1(C)CC(=C2CC(C)(C)NC(C)(C)C2)CC(C)(C)N1 | 144 to 145
CCOC(=O)c1ccc(NC(=O)c2sc3ccc(OC)cc3c2OC(C)C)nc1 | 131 to 133
N#Cc1ccc(C(=O)OC2CCN(Cc3ccccc3)CC2)cc1 | 110 to 111
CCCCCc1nc(-c2ccccc2)c(CCC(=O)O)o1 | 80 to 81
Clc1ccc(C2(Cn3ccnc3)OCC(COc3ccc(N4CCN(c5ccc(-n6cnnn6)cc5)CC4)cc3)O2)c(Cl)c1 (centres undefined) | 201
C=CCN1CCN(c2cc3c(cc2F)c(=O)c(C(=O)O)cn3CC=C)CC1 | 186
CC(C)(C)c1ccc(-c2ccc(C(=O)CCC(=O)O)cc2)cc1 | 172 to 174
C(=C\c1nc(COc2ccc(CCCn3cccc3)cc2)co1)/c1ccccc1 | 108 to 109
Fc1cc(N2CCNCC2)c2ncccc2c1 | 103

Structure (SMILES) | melting point [°C]
CC12CCC3c4ccc(O)cc4CC(Sc4ccc(O)cc4)C3C1CCC2O (centres undefined) | 140 to 145
CC(CS)C(=O)N1CC2CCCCC2C1C(=O)O (centres undefined) | 119 to 129
O=C(NCCN1CCCCC1)N1CCN(c2ccccc2)CC1 | 64 to 67
COc1ccc(C2C(C(=O)c3ccc(C)cc3)=C(O)C(=O)N2c2ccc(C)nn2)cc1 (centres undefined) | 266
O=C(O)c1ccc(COCc2csc3nc(C(=O)NCc4ccnc(OCCCc5nc[nH]n5)c4)[nH]c(=O)c23)cc1 | 206 to 209
CNC(=O)c1sc(C(C)(C)C)cc1NC(=O)Nc1ccc(C(C)C)cc1 | 113 to 120
O=C1c2ccccc2C(=O)N1CC(=O)N1c2ccccc2N(Cc2ccc(O)cc2)C(=O)[C@H]2CCC[C@H]21 (relative stereo) | 264 to 267
C/C=C/c1ccc2c(NCc3ccc(NC(=O)c4ccc(F)cc4)cc3)nc(N(C)C)nc2c1 | 246
O=C(NCCOCCO[N+](=O)[O-])c1cncs1 | 63 to 65
Nc1c(-c2ccc(I)cc2)nc2ccc(Cl)cc2c1C(=O)O | 243 to 245
COc1ccc(C(=O)c2sc3cc(OC)ccc3c2-c2ccccc2)cc1 | 127 to 128
Cc1ccc2cc(NS(C)(=O)=O)ccc2n1 | 151 to 153
COC(=N[N+](=O)[O-])NCc1cnc(Cl)s1 | 133 to 135
CCOC(=O)CC1SC(c2cc(C(C)(C)C)c(O)c(C(C)(C)C)c2)N(CCCBr)C1=O (centres undefined) | 154 to 155
O=C(O)COn1cccn1 | 99
CCCc1c(C#N)c(-c2ccc(C#N)cc2)c(C)n1Cc1cnc(Cl)c(COC(=O)CCC(=O)O)c1 | 167 to 168
C(=Cc1ccc(-c2ccccc2)cc1)c1ccccc1 | 224
CCCCOc1ccc(C=C2C(=O)C3(C)CCC2C3(C)C)cc1 (centres undefined) | 62
O=c1[nH]ncc2[nH]c(-c3ccc(OC(F)F)c(OCC4CC4)c3)c(Cl)c12 | 258 to 260
Cc1cc(C)c2c(c1)S(=O)(=O)NCN2 | 160 to 165

Further lines, results first:

melting point [°C] | Structure (SMILES)
121 to 123 | CC(C(=O)O)c1ccc(N(C)c2nccs2)cc1 (centres undefined)
178 to 179 | COC(=O)c1ccnc(Nc2cc(OC)cc(C(F)(F)F)c2)c1
> 250 | O=c1[nH]cc(-c2ccncn2)cc1Br
192 to 194 | Cc1nc(-c2ccc(S(N)(=O)=O)c(F)c2)c(-c2ccc(-c3cscn3)cc2)o1
72 to 75 | COC(=O)c1nccnc1Nc1ccccc1
110 to 111 | CC1=NN(C)C(=O)C1(Cl)C(=O)c1cc(C)ccc1[N+](=O)[O-] (centres undefined)
176 to 178 | CCCCN(CCCCO)c1ccc(C=Cc2ccc(C=CC3=C(C#N)C(=C(C#N)C#N)OC3(C)C(F)(F)F)s2)c(OCc2ccccc2)c1 (centres undefined)
257 to 258 | Cn1cnc(COc2nn3c(-c4cnccn4)nnc3cc2-c2ccccc2)n1
178 to 180 | CCOC(=O)c1ccc(C(=O)O)c2c([N+](=O)[O-])cccc12
248 to 250 | COc1ccc(Cl)cc1-c1c(N)c(=O)[nH]c2ccccc12
53 to 54.5 | O=CN(Cc1ccccc1)Cc1ccccc1
171 | Cc1cc2c(cc1Cl)NC(=O)CC(c1cccc(-c3ccnc(CNC4CC4)c3)c1)=N2
238 to 243 | ClCc1c2ccccc2c(CCl)c2ccccc12
114 to 116 | CC1=C(C(=O)OCCN(C)c2ccccc2)C(c2ccccc2C(F)(F)F)c2c(ccnc2OC(C)C)N1 (centres undefined)
123 to 124 | COc1ccc(C(=O)NCCc2ccccc2)cc1OC
117 | O=C(NC(Cc1c[nH]c2ccccc12)C(=O)OCc1ccccc1C(F)(F)F)c1ccccc1 (centres undefined)
225 to 228 | O=C(O)C(=O)c1ccc(OCc2ccc3ccccc3n2)cc1
105 to 107 | O=[N+]([O-])c1ccc2c(c1)C(c1ccccn1)=CC(C(F)(F)F)(C(F)(F)F)O2
170 | Nc1cc(CO)cc(S(N)(=O)=O)c1Oc1ccccc1
300 | COC(=O)Nc1cn2cc(S(=O)(=O)c3ccccc3)ccc2n1

melting point [°C] | Structure (SMILES)
103 to 105 | CC(NC=O)c1ccccc1C(F)(F)C(F)(F)c1ccccc1 (centres undefined)
95 to 98 | COc1ccc(F)cc1C(C)(C)CC(O)(Cc1cc(C)cc(C)n1)C(F)(F)F (centres undefined)
125 to 127 | CS(=O)(=O)c1ccc(Oc2ccccc2CC(=O)O)cc1
192 | O=CCc1ccc2c(c1[N+](=O)[O-])C(=O)c1ccccc1C2=O
232 | N=C(N)c1ccc(-c2ccc(-c3ccc(C(=N)N)cn3)o2)cc1
129 to 132 | O=C(O)C1=Cc2cc(SC(F)(F)F)ccc2SC1C(F)(F)F (centres undefined)
80 to 82 | COc1cc(Cn2cnc3cccnc32)ccc1C(=O)N(C1CCCC1)C1CC(C)CC(C)C1 (centres undefined)
64 to 65 | O=C1c2ccccc2CCc2ccc(Cl)cc21
160 to 162 | Cn1c(-c2ccccn2)cc2onc(-c3ccccc3)c2c1=O
193 to 197 | CS(=O)(=O)Nc1ccc(Cn2c(=O)n(Cc3ccc(C(F)(F)F)cc3)c3ccccc32)cc1
154 to 157 | CCc1ccc(Nc2c(-c3nnc(NCCNC)o3)ccc(F)c2F)c(F)c1
219 to 221 | N#Cc1ccc2c(c1)S(=O)c1ccccc1CC2=O (centres undefined)
155 to 156 | CCOC(=O)c1cc(=O)c2cc(Oc3ccccc3)c(NS(C)(=O)=O)cc2o1
138 to 140 | CC(C)(C)NS(=O)(=O)c1ccccc1-c1ccc(CBr)c(F)c1
165 to 166 | CCCOc1ccccc1-c1nc(O)cc(C(=O)NC)n1
90 to 91 | O=C1CC(=Cc2c[nH]c3ccccc23)C(=O)O1
186 to 187 | CC(C)COc1ccccc1-c1ncc(C#N)c(=O)[nH]1
123 to 125 | Cc1ccccc1C=C1CSCC(=Cc2ccccc2C)C1=O
84 | O=c1c2ccccc2c(-c2ccccc2)cn1CCCO
> 300 | Cc1ccccc1C=C1CCc2c1oc1ccc(C(=O)O)cc1c2=O
